Results reported in patent publication US9963442B2, “Pyridones as herbicides” (E I DU PONT DE NEMOURS AND COMPANY, priority 2014, dated 2018).

How the values were obtained:
Experiment in all cases: Test C postemergence
Assay type in all cases: in vivo
Details in all cases: scale 0 to 100, 0 is no effect, 100 is complete control
[1] = test system: yellow nutsedge (Cyperus esculentus)
Source text: (§1) Seeds of plant species selected from blackgrass (Alopecurus myosuroides), Italian ryegrass (Lolium multiflorum), winter wheat (Triticum aestivum), galium (catchweed bedstraw, Galium aparine), corn (Zea mays), large (Lg) crabgrass (Digitaria sanguinalis), giant foxtail (Setaria faberii), johnsongrass (Sorghum halepense), lambsquarters (Chenopodium album), morningglory (Ipomoea coccinea), yellow nutsedge (Cyperus esculentus), pigweed (Amaranthus retroflexus), ragweed (common ragweed, Ambrosia elatior), soybean (Glycine max), barnyardgrass (Echinochloa crus-galli), oilseed rape (Brassica napus), waterhemp (common waterhemp, Amaranthus rudis), and velvetleaf (Abutilon theophrasti) were planted into a blend of loam soil and sand and treated preemergence with test chemicals formulated in a non-phytotoxic solvent mixture which included a surfactant. At the same time, plants selected from these crop and weed species and also chickweed (common chickweed, Stellaria media), kochia (Kochia scoparia), and wild oat (Avena fatua), were planted in pots containing Sunshine Redi-Earth® planting medium comprising spaghnum peat moss, vermiculite, starter nutrients and dolomitic limestone and treated with postemergence applications of test chemicals formulated in the same manner. Plants ranged in height from 2 to 18 cm (1- to 4-leaf stage) for postemergence treatments. Treated plants and controls were maintained in a greenhouse for 13 to 15 days, after which time all species were compared to controls and visually evaluated. Plant response ratings, summarized in Table C, are based on a scale of 0 to 100 where 0 is no effect and 100 is complete control. A dash (-) response means no test result.

[2] = test system: chickweed (common chickweed, Stellaria media)
Source text: as §1

[3] = test system: wild oat (Avena fatua)
Source text: as §1

[4] = test system: ragweed (common ragweed, Ambrosia elatior)
Source text: as §1

[5] = test system: blackgrass (Alopecurus myosuroides)
Source text: as §1

[6] = test system: pigweed (Amaranthus retroflexus)
Source text: as §1

[7] = test system: winter wheat (Triticum aestivum)
Source text: as §1

[8] = test system: soybean (Glycine max)
Source text: as §1

[9] = test system: lambsquarters (Chenopodium album)
Source text: as §1

[10] = test system: kochia (Kochia scoparia)
Source text: as §1

[11] = test system: morningglory (Ipomoea coccinea)
Source text: as §1

[12] = test system: giant foxtail (Setaria faberii)
Source text: as §1

[13] = test system: barnyardgrass (Echinochloa crus-galli)
Source text: as §1

[14] = test system: johnsongrass (Sorghum halepense)
Source text: as §1

[15] = test system: oilseed rape (Brassica napus)
Source text: as §1

With `O=c1cccc(Oc2ncc(Cl)cn2)n1-c1ccc(C(F)(F)F)cn1` [Compound 7] the “Plant response rating, Nutsedge, Yellow” value ([1]; 16 g ai/ha) was 0, the “Plant response rating, Nutsedge, Yellow” value ([1]; 31 g ai/ha) was 5 and the “Plant response rating, Nutsedge, Yellow” value ([1]; 62 g ai/ha) was 5. For the same molecule, the “Plant response rating, Nutsedge, Yellow” value ([1]; 125 g ai/ha) was 10, the “Plant response rating, Chickweed” value ([2]; 16 g ai/ha) was 0 and the “Plant response rating, Chickweed” value ([2]; 31 g ai/ha) was 20. For the same molecule, the “Plant response rating, Chickweed” value ([2]; 62 g ai/ha) was 35, the “Plant response rating, Chickweed” value ([2]; 125 g ai/ha) was 55 and the “Plant response rating, Oat, Wild” value ([3]; 16 g ai/ha) was 0. The “Plant response rating, Oat, Wild” value ([3]; 31 g ai/ha) was 0, the “Plant response rating, Oat, Wild” value ([3]; 62 g ai/ha) was 5 and the “Plant response rating, Oat, Wild” value ([3]; 125 g ai/ha) was 5. The “Plant response rating, Ragweed” value ([4]; 16 g ai/ha) was 25, the “Plant response rating, Ragweed” value ([4]; 31 g ai/ha) was 30 and the “Plant response rating, Ragweed” value ([4]; 62 g ai/ha) was 35. The “Plant response rating, Ragweed” value ([4]; 125 g ai/ha) was 55, the “Plant response rating, Blackgrass” value ([5]; 16 g ai/ha) was 5 and the “Plant response rating, Blackgrass” value ([5]; 31 g ai/ha) was 5. For the same molecule, the “Plant response rating, Blackgrass” value ([5]; 62 g ai/ha) was 10, the “Plant response rating, Blackgrass” value ([5]; 125 g ai/ha) was 20 and the “Plant response rating, Pigweed” value ([6]; 16 g ai/ha) was 70. For the same molecule, the “Plant response rating, Pigweed” value ([6]; 31 g ai/ha) was 65, the “Plant response rating, Pigweed” value ([6]; 62 g ai/ha) was 85 and the “Plant response rating, Pigweed” value ([6]; 125 g ai/ha) was 80. For the same molecule, the “Plant response rating, Wheat” value ([7]; 16 g ai/ha) was 0, the “Plant response rating, Wheat” value ([7]; 31 g ai/ha) was 0 and the “Plant response rating, Wheat” value ([7]; 62 g ai/ha) was 0. The “Plant response rating, Wheat” value ([7]; 125 g ai/ha) was 0, the “Plant response rating, Soybean” value ([8]; 16 g ai/ha) was 50 and the “Plant response rating, Soybean” value ([8]; 31 g ai/ha) was 40. The “Plant response rating, Soybean” value ([8]; 62 g ai/ha) was 50, the “Plant response rating, Soybean” value ([8]; 125 g ai/ha) was 55 and the “Plant response rating, Lambsquarters” value ([9]; 16 g ai/ha) was 25. For the same molecule, the “Plant response rating, Lambsquarters” value ([9]; 31 g ai/ha) was 65, the “Plant response rating, Lambsquarters” value ([9]; 62 g ai/ha) was 65 and the “Plant response rating, Lambsquarters” value ([9]; 125 g ai/ha) was 75. The “Plant response rating, Kochia” value ([10]; 16 g ai/ha) was 10, the “Plant response rating, Kochia” value ([10]; 31 g ai/ha) was 50 and the “Plant response rating, Kochia” value ([10]; 62 g ai/ha) was 70. For the same molecule, the “Plant response rating, Kochia” value ([10]; 125 g ai/ha) was 85, the “Plant response rating, Morningglory” value ([11]; 16 g ai/ha) was 20 and the “Plant response rating, Morningglory” value ([11]; 31 g ai/ha) was 35. The “Plant response rating, Morningglory” value ([11]; 62 g ai/ha) was 40, the “Plant response rating, Morningglory” value ([11]; 125 g ai/ha) was 45 and the “Plant response rating, Foxtail, Giant” value ([12]; 16 g ai/ha) was 10. The “Plant response rating, Foxtail, Giant” value ([12]; 31 g ai/ha) was 10, the “Plant response rating, Foxtail, Giant” value ([12]; 62 g ai/ha) was 15 and the “Plant response rating, Foxtail, Giant” value ([12]; 125 g ai/ha) was 20. For the same molecule, the “Plant response rating, Barnyardgrass” value ([13]; 16 g ai/ha) was 5, the “Plant response rating, Barnyardgrass” value ([13]; 31 g ai/ha) was 5 and the “Plant response rating, Barnyardgrass” value ([13]; 62 g ai/ha) was 5. For the same molecule, the “Plant response rating, Barnyardgrass” value ([13]; 125 g ai/ha) was 10, the “Plant response rating, Johnsongrass” value ([14]; 16 g ai/ha) was 5 and the “Plant response rating, Johnsongrass” value ([14]; 31 g ai/ha) was 5. The “Plant response rating, Johnsongrass” value ([14]; 62 g ai/ha) was 10, the “Plant response rating, Johnsongrass” value ([14]; 125 g ai/ha) was 10 and the “Plant response rating, Oilseed Rape” value ([15]; 16 g ai/ha) was 20. The “Plant response rating, Oilseed Rape” value ([15]; 31 g ai/ha) was 35, the “Plant response rating, Oilseed Rape” value ([15]; 62 g ai/ha) was 40 and the “Plant response rating, Oilseed Rape” value ([15]; 125 g ai/ha) was 35.

With `O=c1cccc(Oc2ncc(Cl)cn2)n1-c1ccc(C(F)(F)F)cc1` [Compound 10] the “Plant response rating, Nutsedge, Yellow” value ([1]; 16 g ai/ha) was 5, the “Plant response rating, Nutsedge, Yellow” value ([1]; 31 g ai/ha) was 10 and the “Plant response rating, Nutsedge, Yellow” value ([1]; 62 g ai/ha) was 15. For the same molecule, the “Plant response rating, Nutsedge, Yellow” value ([1]; 125 g ai/ha) was 20, the “Plant response rating, Chickweed” value ([2]; 16 g ai/ha) was 70 and the “Plant response rating, Chickweed” value ([2]; 31 g ai/ha) was 30. The “Plant response rating, Chickweed” value ([2]; 62 g ai/ha) was 70, the “Plant response rating, Chickweed” value ([2]; 125 g ai/ha) was 80 and the “Plant response rating, Oat, Wild” value ([3]; 16 g ai/ha) was 0. For the same molecule, the “Plant response rating, Oat, Wild” value ([3]; 31 g ai/ha) was 5, the “Plant response rating, Oat, Wild” value ([3]; 62 g ai/ha) was 15 and the “Plant response rating, Oat, Wild” value ([3]; 125 g ai/ha) was 25. For the same molecule, the “Plant response rating, Ragweed” value ([4]; 16 g ai/ha) was 25, the “Plant response rating, Ragweed” value ([4]; 31 g ai/ha) was 25 and the “Plant response rating, Ragweed” value ([4]; 62 g ai/ha) was 60. For the same molecule, the “Plant response rating, Ragweed” value ([4]; 125 g ai/ha) was 65, the “Plant response rating, Blackgrass” value ([5]; 16 g ai/ha) was 10 and the “Plant response rating, Blackgrass” value ([5]; 31 g ai/ha) was 10. For the same molecule, the “Plant response rating, Blackgrass” value ([5]; 62 g ai/ha) was 30, the “Plant response rating, Blackgrass” value ([5]; 125 g ai/ha) was 25 and the “Plant response rating, Pigweed” value ([6]; 16 g ai/ha) was 70. For the same molecule, the “Plant response rating, Pigweed” value ([6]; 31 g ai/ha) was 90, the “Plant response rating, Pigweed” value ([6]; 62 g ai/ha) was 80 and the “Plant response rating, Pigweed” value ([6]; 125 g ai/ha) was 90. The “Plant response rating, Wheat” value ([7]; 16 g ai/ha) was 0, the “Plant response rating, Wheat” value ([7]; 31 g ai/ha) was 5 and the “Plant response rating, Wheat” value ([7]; 62 g ai/ha) was 10. For the same molecule, the “Plant response rating, Wheat” value ([7]; 125 g ai/ha) was 10, the “Plant response rating, Soybean” value ([8]; 16 g ai/ha) was 40 and the “Plant response rating, Soybean” value ([8]; 31 g ai/ha) was 40. The “Plant response rating, Soybean” value ([8]; 62 g ai/ha) was 65, the “Plant response rating, Soybean” value ([8]; 125 g ai/ha) was 55 and the “Plant response rating, Lambsquarters” value ([9]; 16 g ai/ha) was 65. The “Plant response rating, Lambsquarters” value ([9]; 31 g ai/ha) was 75, the “Plant response rating, Lambsquarters” value ([9]; 62 g ai/ha) was 75 and the “Plant response rating, Lambsquarters” value ([9]; 125 g ai/ha) was 90. For the same molecule, the “Plant response rating, Kochia” value ([10]; 16 g ai/ha) was 85, the “Plant response rating, Kochia” value ([10]; 31 g ai/ha) was 90 and the “Plant response rating, Kochia” value ([10]; 62 g ai/ha) was 90. For the same molecule, the “Plant response rating, Kochia” value ([10]; 125 g ai/ha) was 95, the “Plant response rating, Morningglory” value ([11]; 16 g ai/ha) was 50 and the “Plant response rating, Morningglory” value ([11]; 31 g ai/ha) was 55. For the same molecule, the “Plant response rating, Morningglory” value ([11]; 62 g ai/ha) was 70, the “Plant response rating, Morningglory” value ([11]; 125 g ai/ha) was 75 and the “Plant response rating, Foxtail, Giant” value ([12]; 16 g ai/ha) was 10. For the same molecule, the “Plant response rating, Foxtail, Giant” value ([12]; 31 g ai/ha) was 15, the “Plant response rating, Foxtail, Giant” value ([12]; 62 g ai/ha) was 10 and the “Plant response rating, Foxtail, Giant” value ([12]; 125 g ai/ha) was 20. The “Plant response rating, Barnyardgrass” value ([13]; 16 g ai/ha) was 5, the “Plant response rating, Barnyardgrass” value ([13]; 31 g ai/ha) was 10 and the “Plant response rating, Barnyardgrass” value ([13]; 62 g ai/ha) was 25. The “Plant response rating, Barnyardgrass” value ([13]; 125 g ai/ha) was 65, the “Plant response rating, Johnsongrass” value ([14]; 16 g ai/ha) was 5 and the “Plant response rating, Johnsongrass” value ([14]; 31 g ai/ha) was 10. For the same molecule, the “Plant response rating, Johnsongrass” value ([14]; 62 g ai/ha) was 10, the “Plant response rating, Johnsongrass” value ([14]; 125 g ai/ha) was 25 and the “Plant response rating, Oilseed Rape” value ([15]; 16 g ai/ha) was 5. For the same molecule, the “Plant response rating, Oilseed Rape” value ([15]; 31 g ai/ha) was 25, the “Plant response rating, Oilseed Rape” value ([15]; 62 g ai/ha) was 80 and the “Plant response rating, Oilseed Rape” value ([15]; 125 g ai/ha) was 80.
